For six compounds, IC50 results are on record in ChEMBL document CHEMBL5726472, “Oxazolidin-2-one-pyrimidine derivatives and the use thereof as phosphatidylinositol-3-kinase inhibitors” (2019).

Test [1] in a line: (§1) AlphaScreen (Amplified Luminescent Proximity Homogeneous Assay, ALPHA, Perkin Elmer) is a non-radioactive bead-based proximity assay technology to study biomolecular interactions in a homogenous microtiter plate format. The brand name SureFire denotes AlphaScreen assays that are adapted to quantify the phosphorylation of endogenous cellular proteins in cell lysates, by using matched antibody pairs, which consist of an anti-phospho-kinase and an anti-kinase antibody. The assay allows characterization of kinase signaling in cells as well as measurement of kinase inhibitor effects. The AlphaScreen technology provides several advantages over standard assay techniques such as ELISA, as it avoids time-consuming washing procedures and reduces plate handling. Furthermore, it is miniaturizable at least to a 384-well format and provides sensitivity down to the femtomolar range, dependent on the affinity of the antibodies included in the individual AlphaScreen SureFire assay kit. High sensitivity is reached by an intrinsic amplification mechanism, which involves production of singlet oxygen molecules. SureFire assay kits are commercially available for specific targets and include pairs of validated antibodies (PerkinElmer). This report describes common procedures applied for AlphaScreen SureFire assays and respective semi-automated steps for routine kinase inhibitor profiling in cell-based assays.The Rat-1 cell lines stably overexpressing activated PI3K class I isoforms Rat-1 pBABEpuro Myr-HA-hp110 delta (Rat-1_PI3Kdelta) and Rat-1 pBABEpuro Myr-HA-hp110alpha (Rat-1_PI3Kalpha) and Rat-1 pBABEpuro Myr-HA-hp110 beta (Rat-1_PI3beta) were prepared as described (Maira S M, Stauffer F, Brueggen J, Furet P, Schnell C, Fritsch C, Brachmann S, Chène P, de Pover A, Schoemaker K, Fabbro D, Gabriel D, Simonen M, Murphy L, Finan P, Sellers W, Garcia-Echeverria C (2008), Mol Cancer Ther. 7:1851-63 and Maira S M, Pecchi S, Brueggen J, Huh K, Schnell C, Fritsch C, Nagel T, Wiesmann M, Brachmann S, Dorsch M, Chène P, Schoemaker K, De Pover A, Menezes D, Fabbro D, Sellers W, Garcia-Echeverria C, Voliva CF (2011), Mol. Cancer Ther., accepted). All cell lines were cultivated in complete growth medium (DMEM high glucose, 10% (v/v) fetal bovine serum, 1% (v/v) MEM NEAA, 10 mM HEPES, 2 mM L-glutamine, puromycin (10 μg/mL for Rat-1_PI3Kdelta and Rat-1_PI3Kalpha, 4 ug/mL for Rat-1_PI3beta), 1% (v/v) Pen/Strep) to 90% confluency at 37° C./5% CO2/90% humidity in a humidified CO2 incubator and were split twice a week.The following materials were used for p-AKT(5473) detection in Rat-1 cell lysates: Dulbecco's modified Eagle's medium (DMEM) high glucose (Gibco Invitrogen, Basel, Switzerland, Cat. No. 41965), Heat Inactivated Fetal Bovine Serum, Qualified (HI FBS; Gibco Invitrogen, Basel, Switzerland, Lot. No. 16140), MEM non essential amino acids (NEAA; Gibco Invitrogen, Basel, Switzerland, Cat. No. 11140), HEPES (Gibco Invitrogen, Basel, Switzerland, Cat. No. 15630), Penicillin/Streptomycin (Pen/Strep, 100x; Gibco Invitrogen, Basel, Switzerland, Cat. No. 15140-122), L-Glutamine (Gibco Invitrogen, Basel, Switzerland, Cat. No. 25030), Puromycin (Sigma Aldrich, Buchs, Switzerland, Cat. No. P9620), DMSO (MERCK, Dietikon, Switzerland, Cat. No. 8.02912.2500), H2O, MilliQ-H2O unless otherwise stated (MILLIPORE QGARDOOR1, Millipore, Zug, Switzerland), Bovine serum albumine (BSA; Sigma Aldrich, Buchs, Switzerland Cat. No. A8412), SureFire p-Akt ½ (Ser473) Assay Kit (PerkinElmer, Schwerzenbach, Switzerland, Cat. No. TGRAS50K).The p-Akt(5473) SureFire assay measures the phosphorylation of endogenous cellular Akt ½ at Ser473 in cell lysates. Using Rat-1 cells stably expressing myr-HA-tagged versions of the human PI3Kdelta, PI3Kalpha, or PI3Kbeta p110 catalytic subunit isoforms, the assay was developed as a two-plate protocol in a 384-well format. For compound testing, the cells were seeded at a density of 4000 (Rat-1_PI3Kdelta), 7500 (Rat-1_PI3Kalpha).

Test [2] is described as follows: as §1, with “No. 16140), MEM non essential amino acids (NEAA; Gibco Invitrogen, Basel, Switzerland, Cat. No. 11140), HEPES (Gibco Invitrogen, Basel, Switzerland, Cat. No. 15630), Penicillin/Streptomycin (Pen/Strep, 100x; Gibco Invitrogen, Basel, Switzerland, Cat. No. 15140-122), L-Glutamine (Gibco Invitrogen, Basel, Switzerland, Cat. No. 25030), Puromycin (Sigma Aldrich, Buchs, Switzerland, Cat. No. P9620), DMSO (MERCK, Dietikon, Switzerland, Cat. No. 8.02912.2500), H2O, MilliQ-H2O unless otherwise stated (MILLIPORE QGARDOOR1, Millipore, Zug, Switzerland), Bovine serum albumine (BSA; Sigma Aldrich, Buchs, Switzerland Cat. No. A8412), SureFire p-Akt ½ (Ser473) Assay Kit (PerkinElmer, Schwerzenbach, Switzerland, Cat. No. TGRAS50K).The p-Akt(5473) SureFire assay measures the phosphorylation of endogenous cellular Akt ½ at Ser473 in cell lysates. Using Rat-1 cells stably expressing myr-HA-tagged versions of the human PI3Kdelta, PI3Kalpha, or PI3Kbeta p110 catalytic subunit isoforms, the assay was developed as a two-plate protocol in a 384-well format. For compound testing, the cells were seeded at a density of 4000 (Rat-1_PI3Kdelta), 7500 (Rat-1_PI3Kalpha).” left out.

In the case of `Nc1ncc(-c2cc(N3CCOCC3)nc(N3CCOCC3)n2)c(C(F)(F)F)n1`, the IC50 is 0.156 µM in test [1] and 0.139 µM in test [2]. Take `Nc1ncc(-c2cc(N3CCOC(c4ccccc4)C3)nc(N3CCOCC3)n2)c(C(F)(F)F)n1` (stereo unspecified): the IC50 in test [1] is greater than 10 µM. In the case of `Nc1ncc(-c2cc(N3CCC(=O)CC3)nc(N3CCOCC3)n2)c(C(F)(F)F)n1`, the IC50 in test [1] was determined as 5.31 µM; in test [2] it was 6.54 µM. The corresponding values for `Nc1ncc(-c2cc(N3C(=O)O[C@@H](c4ccc(OCCO)cc4)[C@@H]3CO)nc(N3CCOCC3)n2)c(C(F)(F)F)n1` are less than 0.003 µM and less than 0.003 µM.

Consider `Nc1ncc(-c2cc(N3CCCCC3=O)nc(N3CCOCC3)n2)c(C(F)(F)F)n1`, for which the IC50 is 1.54 µM in test [1] and 1.04 µM in test [2]. For `Nc1ncc(-c2cc(N3CCN(c4ccccc4)C3=O)nc(N3CCOCC3)n2)c(C(F)(F)F)n1`, the IC50 was 1.58 µM in test [1] and 1.47 µM in test [2].
